This is an account of results in paper PMC12881670, “Investigation into ligand selectivity and bias at the formyl peptide receptor family” (The Journal of Pharmacology and Experimental Therapeutics, 2025).

Where a SMILES comes first, the peptide text is derived from it. The star is where a group is joined. For = O=C*

Assay [1] addresses T1, Hs_FPR2 (Homo sapiens, UniProt P25090).
T1 construct: expressed in transfected cells
T1 sequence (P25090 1-351): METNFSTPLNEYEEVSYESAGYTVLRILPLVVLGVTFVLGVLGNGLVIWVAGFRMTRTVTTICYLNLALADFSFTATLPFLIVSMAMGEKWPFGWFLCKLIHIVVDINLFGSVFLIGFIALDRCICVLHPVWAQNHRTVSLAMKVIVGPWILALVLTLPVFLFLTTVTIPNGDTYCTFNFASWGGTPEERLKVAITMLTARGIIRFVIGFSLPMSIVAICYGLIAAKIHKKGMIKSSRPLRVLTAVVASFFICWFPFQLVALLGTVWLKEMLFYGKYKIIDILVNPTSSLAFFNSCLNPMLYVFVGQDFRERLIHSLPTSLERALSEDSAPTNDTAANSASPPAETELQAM
The assay is described as follows: BRET receptor-RLuc8 interaction with Venus-mGsi. Type of assay: cell-based. The method, then: (§1) BRET1 assays to measure FPR interaction with Venus-mGsi and Arrestin 3-yellow fluorescent protein (YFP) were performed as previously described.[31]^,[32] Briefly, all FPRs C-terminally fused to Renilla Luciferase (donor, RLuc8) were transiently transfected along with either Venus-mGsi or YFP-Arrestin 3 (acceptor) at a ratio of 1:4. 24 hours post transfection, cells were replated into white-walled, 96-well plates and cultured for a further 24–48 hours. On the day of experimentation, growth media was aspirated and replaced with 80 μl Hanks Buffered Saline Solution and equilibrated for 30 minutes. Coelenterazine h was added to each well to a final concentration of 5 μM for 5 minutes before the addition of each compound, and the plate was incubated for a further 10 minutes at 37 °C before being read on a ClarioStar Plus, with luminescence measured at 480/20 nm (donor) and 530/20 (acceptor). The BRET ratio (acceptor/donor) was determined, and the background (untreated) subtracted to give the N-BRET value.
(§2) All data were analyzed using GraphPad Prism using the nonlinear regression log(agonist) versus response (3 parameters) function for all assays, except binding, which was analyzed using the One site-FitlogIC50 function. Bias calculations were carried out following IUPHAR guidelines as described,[27]^,[37] and data were presented as the Δ Activity ratio (Log[EmaxB/EC50B])-(Log[EmaxA/EC50A]).
(In BRET a luciferase serves as donor, and the signal depends on an acceptor being close.)

The target of assay [2] is T2, Mm_Fpr1 (Mus musculus, UniProt P33766).
T2 construct: expressed in transfected cells
T2 sequence (P33766 1-364): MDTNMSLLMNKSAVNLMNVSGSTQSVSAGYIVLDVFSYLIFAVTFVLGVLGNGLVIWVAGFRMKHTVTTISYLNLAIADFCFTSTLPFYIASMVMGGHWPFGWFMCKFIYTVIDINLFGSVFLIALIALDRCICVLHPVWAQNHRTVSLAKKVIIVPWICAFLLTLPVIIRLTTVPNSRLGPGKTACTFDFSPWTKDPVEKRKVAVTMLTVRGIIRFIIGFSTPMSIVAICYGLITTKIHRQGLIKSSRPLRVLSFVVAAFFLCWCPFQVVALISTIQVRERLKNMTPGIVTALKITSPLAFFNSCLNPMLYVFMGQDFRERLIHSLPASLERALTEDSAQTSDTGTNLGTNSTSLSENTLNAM
Kind of assay: BRET receptor-RLuc8 interaction with Venus-mGsi. The assay is classed as cell-based. How it is done:
as §1, §2

The target in assay [3] is T3, Mm_Fpr2 (Mus musculus, UniProt O88536).
T3 construct: expressed in transfected cells
T3 sequence (O88536 1-351): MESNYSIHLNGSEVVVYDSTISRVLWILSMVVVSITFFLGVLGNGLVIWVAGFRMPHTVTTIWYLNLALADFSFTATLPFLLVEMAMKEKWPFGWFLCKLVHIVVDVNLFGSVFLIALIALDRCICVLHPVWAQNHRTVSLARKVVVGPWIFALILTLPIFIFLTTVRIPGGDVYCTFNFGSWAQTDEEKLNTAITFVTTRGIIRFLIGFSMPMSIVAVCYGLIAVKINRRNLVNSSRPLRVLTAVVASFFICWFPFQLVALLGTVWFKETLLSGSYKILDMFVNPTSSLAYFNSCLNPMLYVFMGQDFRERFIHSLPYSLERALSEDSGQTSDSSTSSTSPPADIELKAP
Kind of assay: BRET receptor-RLuc8 interaction with Venus-mGsi. The assay is classed as cell-based. The method, then: as §1, §2

The target of assay [4] is T1, Hs_FPR2. Kind of assay: ERK1/2 phosphorylation by Western blotting. The assay is classed as cell-based. How it is done:
(§3) ERK phosphorylation was detected by Western blotting as previously described.[30] Briefly, HEK293 cells stably expressing FLAG-tagged FPRs were plated into 12-well culture plates until 90% confluent. On the day of the experiment, culture media was replaced with serum-free Dulbecco’s modified Eagle’s medium and incubated for 2 hours before stimulation with the indicated compounds. After 7 minutes, the media was removed and stimulation terminated by the addition of 100 μl sample buffer (0.5% SDS, Tris (pH 6.8), glycerol, at >90 °C).
as §2
(A western blot detects proteins with antibodies after separation by electrophoresis.)

Assay [5] has as its target T3, Mm_Fpr2. Kind of assay: ERK1/2 phosphorylation by Western blotting. The assay is classed as cell-based. The method, then:
as §3, §2

Assay [6] deals with T1, Hs_FPR2. The assay is described as follows: BRET receptor-RLuc8 interaction with Arrestin 3-YFP. The assay is classed as cell-based. How it is done:
as §1, §2

Assay [7] concerns the target T3, Mm_Fpr2. Described as above. Type of assay: cell-based. How it is done: as §1, §2
For another assay, the target named is T4, Hs_FPR1 (Homo sapiens, UniProt P21462).
T4 construct: expressed in transfected cells
T4 sequence (P21462 1-350): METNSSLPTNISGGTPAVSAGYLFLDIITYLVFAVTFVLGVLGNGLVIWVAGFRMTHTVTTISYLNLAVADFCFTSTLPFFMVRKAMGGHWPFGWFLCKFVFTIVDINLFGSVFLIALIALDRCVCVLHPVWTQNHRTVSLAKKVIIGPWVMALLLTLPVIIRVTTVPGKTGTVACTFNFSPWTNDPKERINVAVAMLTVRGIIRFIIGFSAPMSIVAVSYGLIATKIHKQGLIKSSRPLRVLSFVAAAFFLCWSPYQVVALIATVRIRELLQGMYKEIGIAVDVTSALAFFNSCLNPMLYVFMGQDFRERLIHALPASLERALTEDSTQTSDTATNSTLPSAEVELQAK
The assay is described as follows: Internalization of FLAG-tagged receptors by flow cytometry. The assay is classed as cell-based. On the set-up: Emax: dose or concentration left out as unconfirmed. To be noted: Hs_FPR1, 30 min, relative to 1 μM WKYMVm. The method, then:
(§4) Internalization of FPRs was measured by flow cytometry.[30] Briefly, cells were incubated with Alexa Fluor 657 conjugated M1 antiflag antibody (Sigma-Aldrich Cat# F3040, RRID:AB_439712) for 30 minutes at 37 °C to label surface receptors. Cells were then incubated with the indicated concentration of ligand before washing in PBS/0.04% EDTA to remove any remaining surface antibody. Remaining fluorescence was then measured using flow cytometry on either a BD FACScalibur or Attune, recording 5000 gated events. […] As a control, some samples were left untreated, and “strip only” was measured as a readout of constitutive endocytosis, and this value was subtracted from the data.
as §2
In general terms: A flow cytometer gives signals particle by particle.

Assay [8] deals with T1, Hs_FPR2. The assay is described as above. The assay is classed as cell-based. On the set-up: Emax: dose or concentration left out as unconfirmed. How it is done:
as §4, §2

Assay [9] addresses T2, Mm_Fpr1. Described as above. Type of assay: cell-based. The arrangement: Emax: dose or concentration left out as unconfirmed. How it is done: (§5) Internalization of FPRs was measured by flow cytometry.[30] Briefly, cells were incubated with Alexa Fluor 657 conjugated M1 antiflag antibody (Sigma-Aldrich Cat# F3040, RRID:AB_439712) for 30 minutes at 37 °C to label surface receptors. Cells were then incubated with the indicated concentration of ligand before washing in PBS/0.04% EDTA to remove any remaining surface antibody. Remaining fluorescence was then measured using flow cytometry on either a BD FACScalibur or Attune, recording 5000 gated events. […] As a control, some samples were left untreated, and “strip only” was measured as a readout of constitutive endocytosis, and this value was subtracted from the data. Vehicle control (0.1% DMSO) had no effect on internalization of receptors.
as §2

Assay [10] concerns the target T3, Mm_Fpr2. The assay is described as above. The assay is classed as cell-based. The arrangement: Emax: dose or concentration left out as unconfirmed. The method, then:
as §5, §2

The subject of assay [11] is formyl peptide receptor family (Hs_FPR1, Hs_FPR2, Mm_Fpr1, Mm_Fpr2). Kind of assay: Summary of main findings: receptor subtype selectivity and ligand bias across all readouts. On the set-up: species or system human and mouse. The text has this: To determine ligand bias, a reference ligand is required, that is, “balanced” for the pathways tested.[37] […] We then used measurements of the activity ratio (Log (Emax/EC50)) for each receptor, ligand, and pathway in an attempt to observe any ligand bias (Fig. 6).

Broadly, the Emax is the maximal effect, on the per cent scale that the assay sets.

As to `CC[C@H](C)[C@H](NC(=O)[C@H](CC(C)C)NC(=O)[C@H](CCCCN)NC(=O)[C@H](CCSC)NC(=O)[C@H](CC(C)C)NC(=O)[C@@H]1CCCN1C(=O)[C@H](CC(N)=O)NC(=O)[C@@H](NC(=O)[C@H](CCCCN)NC(=O)[C@H](CCCNC(=N)N)NC(=O)[C@H](CCSC)NC(=O)[C@@H]1CCCN1C(=O)[C@@H](NC(=O)[C@H](CCSC)NC=O)[C@@H](C)O)[C@@H](C)CC)C(=O)N[C@@H](CC(N)=O)C(=O)O` [MCT-2, Formyl-MTPMRKINPLMKLIN] (For-MTPMRKINPLMKLIN-OH), the Emax at Hs_FPR2 [1] is 44.4%; on Mm_Fpr1 [2] it was -8.19%; at Mm_Fpr2 [3], 25%; on Hs_FPR2 [4], 93.9%; at Mm_Fpr2 [5], 169%; on Hs_FPR2 [6], 51.8%. For the same compound, the Emax was 12.1% at Mm_Fpr2 [7], 63.3% on Hs_FPR2 [8], 7.39% at Mm_Fpr1 [9] and 43.9% on Mm_Fpr2 [10]. Besides, the “agonist-induced internalization (words)” value at Hs_FPR1 is on record as “failed to show appreciable internalization”; at Mm_Fpr1 [9] (Mm_Fpr1, 30 min, relative to 1 μM WKYMVm), “failed to show appreciable internalization”. Moreover, the Bias result in assay [11] (summary grade of ligand bias relative to WKYMVm, key not given) is “No”. Besides, in assay [11] (summary of main findings, in words), the Notes result is “Partial agonist”.
